Assay results: patent US8937089B2, “Synergistic mixtures of anthranilamide invertebrate pest control agents” (priority 2004, dated 2015)

Assays:
Assay in all cases: whole plant or invertebrate
Type in all cases: in vivo
[1] = system: corn planthopper (Peregrines maidis); conditions: Corn Plant Hopper
Procedure, shortened: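 Compounds in 10% acetone/90% water with 300 ppm X-77 surfactant sprayed (3 replications) onto 3- to 4-day-old corn plants, dried 1 h, then infested with 10–20 corn planthopper nymphs aged 18–20 days. Held 6 days at 19-21° C. and 50-70% relative humidity; contact and/or systemic control assessed.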

[2] = system: potato leafhopper (Empoasca fabae Harris); conditions: alone
Procedure, shortened: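 Bean plants (5–6 days old, one primary leaf excised) were sprayed with 1 mL of compound in 10% acetone/water with 300 ppm X-77 surfactant, 3 replicates. After drying for 1 h, each unit was infested with 5 adult leafhoppers. Units were held 6 days at 19–21 °C and 50–70% RH.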

[3] = system: western flower thrip (Frankliniella occidentalis Pergande); conditions: single compound, spray, 7 days
Procedure, shortened: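 Compounds in 10% acetone/90% water with 300 ppm non-ionic surfactant were sprayed onto 5- to 7-day-old bean plants, 3 replicates. After 1 h drying, 22–27 adult thrips were added per unit. Units were held 7 days at 25° C, 45–55% RH, assessing contact and/or systemic control.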

[4] = system: cotton melon aphid (Aphis gossypii Glover)
Procedure, shortened: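 Cotton plants (6–7 days old) pre-infested with 30–40 aphids by cut-leaf method, sprayed with compound (ppm) in 10% acetone/90% water with 300 ppm X-77 surfactant, three replicates. Held 6 days at 19–21 °C, 50–70% RH; contact and/or systemic control assessed.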

[5] = system: silverleaf whitefly (Bemisia argentifolii Bellows and Perring); conditions: Table 2B
Procedure, shortened: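 Whitefly-egg-infested 12–14-day-old cotton plants sprayed with compound in 10% acetone/90% water plus 300 ppm non-ionic surfactant, in triplicate. Plants then held 13 days at 28 °C and 50–70% relative humidity before mortality assessment.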

[6] = system: green peach aphid (Myzus persicae Sulzer); conditions: Green Peach Aphid
Procedure, shortened: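 Compounds formulated in 10% acetone/water with 300 ppm X-77 surfactant were atomized onto aphid-infested radish seedlings, with three replicates per treatment. Infestation was 30–40 aphids transferred on excised leaf pieces, covering contact and systemic exposure. Test units stayed 6 days in a growth chamber at 19–21 °C and 50–70% relative humidity.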

## CCc1ccc(C(=O)NN(C(=O)c2cc(C)cc(C)c2)C(C)(C)C)cc1 [Tebufenozide]
[1]; rate 100 ppm, read-out: % mortality (obs)
  mortality at 100 ppm: 12%
[1]; rate 1000 ppm, read-out: % mortality (obs)
  mortality at 1000 ppm: 16%
[1]; rate 3000 ppm, read-out: % mortality (obs)
  mortality at 3000 ppm: 12%
[2]; Empoasca fabae, rate 3 ppm, read-out: % mortality (obs)
  mortality at 3 ppm: 40%
[2]; Empoasca fabae, rate 4 ppm, read-out: % mortality (obs)
  mortality at 4 ppm: 27%
[2]; Empoasca fabae, rate 5 ppm, read-out: % mortality (obs)
  mortality at 5 ppm: 20%
[3]; Frankliniella occidentalis, 168 h, rate 100 ppm, read-out: % mortality (obs)
  mortality at 100 ppm: 70%
[3]; Frankliniella occidentalis, 168 h, rate 1000 ppm, read-out: % mortality (obs)
  mortality at 1000 ppm: 60%
[3]; Frankliniella occidentalis, 168 h, rate 3000 ppm, read-out: % mortality (obs)
  mortality at 3000 ppm: 60%
[4]; Aphis gossypii, rate 0.5 ppm, read-out: % mortality (obs)
  mortality at 0.5 ppm: 21%
[4]; Aphis gossypii, rate 1.5 ppm, read-out: % mortality (obs)
  mortality at 1.5 ppm: 37%
[4]; Aphis gossypii, rate 3 ppm, read-out: % mortality (obs)
  mortality at 3 ppm: 22%
[5]; Bemisia argentifolii, in Gossypium hirsutum, rate 100 ppm, read-out: % mortality (obs)
  mortality at 100 ppm: 2%
[5]; Bemisia argentifolii, in Gossypium hirsutum, rate 1000 ppm, read-out: % mortality (obs)
  mortality at 1000 ppm: 6%
[5]; Bemisia argentifolii, in Gossypium hirsutum, rate 3000 ppm, read-out: % mortality (obs)
  mortality at 3000 ppm: 7%
[6]; Myzus persicae, in Raphanus sativus, rate 100 ppm, read-out: % mortality (obs)
  mortality at 100 ppm: 8%
[6]; Myzus persicae, in Raphanus sativus, rate 1000 ppm, read-out: % mortality (obs)
  mortality at 1000 ppm: 7%
[6]; Myzus persicae, in Raphanus sativus, rate 3000 ppm, read-out: % mortality (obs)
  mortality at 3000 ppm: 9%

## CS/C(C)=N\OC(=O)N(C)SN(C)C(=O)O/N=C(\C)SC [Thiodicarb]
[1]; rate 0.08 ppm
  % mortality (obs): 2%
[1]; rate 0.16 ppm
  % mortality (obs): 6%
[1]; rate 0.4 ppm
  % mortality (obs): 7%
[2]; rate 0.08 ppm
  % mortality (obs): 0%
[2]; rate 0.16 ppm
  % mortality (obs): 20%
[2]; rate 0.4 ppm
  % mortality (obs): 20%
[3]; rate 20 ppm
  % mortality (obs): 60%
[3]; rate 200 ppm
  % mortality (obs): 80%
[4]; rate 3 ppm
  % mortality (obs): 49%
[4]; rate 10 ppm
  % mortality (obs): 32%
[4]; rate 30 ppm
  % mortality (obs): 69%
[5]; rate 100 ppm
  % mortality (obs): 1%
[5]; rate 1000 ppm
  % mortality (obs): 0%
[5]; rate 3000 ppm
  % mortality (obs): 6%
[6]; rate 20 ppm
  % mortality (obs): 10%
[6]; rate 150 ppm
  % mortality (obs): 17%
[6]; rate 900 ppm
  % mortality (obs): 98%

## Acetamiprid
[1]; rate 0.3 ppm
  % mortality (obs): 43%
[1]; rate 0.4 ppm
  % mortality (obs): 85%
[1]; rate 0.5 ppm
  % mortality (obs): 100%
[2]; rate 1 ppm
  % mortality (obs): 27%
[2]; rate 4 ppm
  % mortality (obs): 60%
[2]; rate 12 ppm
  % mortality (obs): 87%
[3]; rate 1 ppm
  % mortality (obs): 70%
[3]; rate 100 ppm
  % mortality (obs): 90%
[3]; rate 3000 ppm
  % mortality (obs): 100%
[4]; rate 0.02 ppm
  % mortality (obs): 42%
[4]; rate 0.08 ppm
  % mortality (obs): 67%
[4]; rate 0.4 ppm
  % mortality (obs): 100%
[5]; rate 1 ppm
  % mortality (obs): 3%
[5]; rate 5 ppm
  % mortality (obs): 45%
[5]; rate 20 ppm
  % mortality (obs): 83%
[6]; rate 0.2 ppm
  % mortality (obs): 27%
[6]; rate 0.4 ppm
  % mortality (obs): 52%
[6]; rate 0.6 ppm
  % mortality (obs): 46%

## Cartap
[1]; rate 0.3 ppm
  % mortality (obs): 100%
[1]; rate 3 ppm
  % mortality (obs): 100%
[1]; rate 30 ppm
  % mortality (obs): 100%
[2]; rate 0.1 ppm
  % mortality (obs): 20%
[2]; rate 1 ppm
  % mortality (obs): 73%
[2]; rate 10 ppm
  % mortality (obs): 100%
[3]; rate 1 ppm
  % mortality (obs): 40%
[3]; rate 1000 ppm
  % mortality (obs): 100%
[3]; rate 3000 ppm
  % mortality (obs): 100%
[4]; rate 0.2 ppm
  % mortality (obs): 29%
[4]; rate 2 ppm
  % mortality (obs): 34%
[4]; rate 200 ppm
  % mortality (obs): 83%
[5]; rate 0.1 ppm
  % mortality (obs): 0%
[5]; rate 0.2 ppm
  % mortality (obs): 0%
[5]; rate 0.5 ppm
  % mortality (obs): 0%
[6]; rate 0.2 ppm
  % mortality (obs): 11%
[6]; rate 0.4 ppm
  % mortality (obs): 26%
[6]; rate 0.6 ppm
  % mortality (obs): 17%

## Chlorfenapyr
[1]; rate 1.5 ppm
  % mortality (obs): 31%
[1]; rate 2.5 ppm
  % mortality (obs): 15%
[1]; rate 3.5 ppm
  % mortality (obs): 11%
[2]; rate 1 ppm
  % mortality (obs): 73%
[2]; rate 5 ppm
  % mortality (obs): 100%
[2]; rate 20 ppm
  % mortality (obs): 100%
[3]; rate 5 ppm
  % mortality (obs): 40%
[3]; rate 20 ppm
  % mortality (obs): 70%
[3]; rate 150 ppm
  % mortality (obs): 90%
[4]; rate 1 ppm
  % mortality (obs): 27%
[4]; rate 10 ppm
  % mortality (obs): 57%
[4]; rate 150 ppm
  % mortality (obs): 67%
[5]; rate 10 ppm
  % mortality (obs): 6%
[5]; rate 100 ppm
  % mortality (obs): 14%
[5]; rate 1000 ppm
  % mortality (obs): 18%
[6]; rate 1.5 ppm
  % mortality (obs): 22%
[6]; rate 7 ppm
  % mortality (obs): 36%
[6]; rate 35 ppm
  % mortality (obs): 100%

## Fipronil
[1]; rate 0.5 ppm
  % mortality (obs): 5%
[1]; rate 1 ppm
  % mortality (obs): 41%
[1]; rate 1.5 ppm
  % mortality (obs): 15%
[2]; rate 0.5 ppm
  % mortality (obs): 7%
[2]; rate 1 ppm
  % mortality (obs): 20%
[2]; rate 1.5 ppm
  % mortality (obs): 27%
[3]; rate 0.5 ppm
  % mortality (obs): 100%
[3]; rate 2 ppm
  % mortality (obs): 100%
[3]; rate 10 ppm
  % mortality (obs): 100%
[4]; rate 2 ppm
  % mortality (obs): 27%
[4]; rate 4 ppm
  % mortality (obs): 44%
[4]; rate 8 ppm
  % mortality (obs): 85%
[5]; rate 50 ppm
  % mortality (obs): 1%
[5]; rate 100 ppm
  % mortality (obs): 0%
[5]; rate 1000 ppm
  % mortality (obs): 13%
[6]; rate 2 ppm
  % mortality (obs): 17%
[6]; rate 4 ppm
  % mortality (obs): 31%
[6]; rate 8 ppm
  % mortality (obs): 50%

## Novaluron
[1]; rate 250 ppm
  % mortality (obs): 7%
[1]; rate 500 ppm
  % mortality (obs): 5%
[1]; rate 1000 ppm
  % mortality (obs): 100%
[2]; rate 250 ppm
  % mortality (obs): 7%
[2]; rate 500 ppm
  % mortality (obs): 7%
[2]; rate 1000 ppm
  % mortality (obs): 0%
[3]; rate 1 ppm
  % mortality (obs): 50%
[3]; rate 100 ppm
  % mortality (obs): 50%
[3]; rate 1000 ppm
  % mortality (obs): 80%
[4]; rate 50 ppm
  % mortality (obs): 28%
[4]; rate 250 ppm
  % mortality (obs): 30%
[4]; rate 1000 ppm
  % mortality (obs): 29%
[5]; rate 2 ppm
  % mortality (obs): 2%
[5]; rate 10 ppm
  % mortality (obs): 0%
[5]; rate 250 ppm
  % mortality (obs): 28%
[6]; rate 250 ppm
  % mortality (obs): 14%
[6]; rate 500 ppm
  % mortality (obs): 24%
[6]; rate 1000 ppm
  % mortality (obs): 25%
